The values that follow are results of earlier work, collected in patent publication US5817883A, “Processes for producing hydroxyaldehydes” (Union Carbide Chemicals & Plastics Technology Corporation, priority 1997, dated 1998).

For the first series the following is noted: Table I, organophosphorus ligand basicity.
Consider `c1ccc(P(c2ccccc2)C2CCCCC2)cc1` [Diphenylcyclohexylphosphine], for which the pKb is 5.

Take `CCP(c1ccccc1)c1ccccc1` [Diphenylethylphosphine]: the pKb is recorded as 4.9.

In the case of `CCCP(CCC)CCC` [Tri-n-propylphosphine], the pKb was 8.7. Turning to `C1CCC(P(C2CCCCC2)C2CCCCC2)CC1` [Tricyclohexylphosphine], the pKb is given as 10.

For `CP(c1ccccc1)c1ccccc1` [Diphenylmethylphosphine], the pKb was 4.5. Consider `COc1ccc(P(c2ccc(OC)cc2)c2ccc(OC)cc2)cc1` [Tri(p-methoxyphenyl)phosphine], for which the pKb is on record as 4.6. Consider `CCCCP(CCCC)CCCC` [Tri-n-butylphosphine], for which the pKb was 8.4. Regarding `CCCCCCCCP(CCCCCCCC)CCCCCCCC` [Tri-n-octylphosphine], the pKb is 8.4. `CP(C)C` [Trimethylphosphine]: the pKb is reported as 8.7.

Take `CCP(CC)C(C)(C)C` [Diethyl-tert-butylphosphine]: the pKb was 10.1. On to `CCP(CC)c1ccccc1` [Diethylphenylphosphine], for which the pKb is 6.4.

For `CCP(CC)CC` [Triethylphosphine], the pKb is given as 8.7. As for `CN(C)c1ccc(P(c2ccc(N(C)C)cc2)c2ccc(N(C)C)cc2)cc1` [Tri(p-N,N-dimethylaminophenyl)phosphine], the pKb is recorded as 8.65. As to `c1ccc(P(c2ccccc2)c2ccccc2)cc1` [Triphenylphosphine, reference compound], the pKb is recorded as 2.74.

The series is the same for the next values; noted with them: basicity of reference phosphine.
On to `c1ccc(P(c2ccccc2)c2ccccc2)cc1` [Triphenylphosphine, reference compound], for which the pKb was 2.74.
